Source: patent US5958894A, “Amphiphilic biguanide derivatives” (Megabios Corporation, priority 1997, dated 1999)

Key:
[1] = tested on: CAT reporter gene expression in lung; test: Gene transfer efficiency by intravenous delivery: CAT reporter gene (plasmid p4119) activity in mouse organs; type: in vivo, ICR female mice; conditions: with either cholesterol or DLPE as neutral lipids
Protocol: (§1) DOBG, DMBG and DPBG were used to prepare liposomes with either cholesterol or DLPE (1,2-dilauroyl-sn-glycerol-3-phosphoethanolamine) as neutral lipids. The lipids were dissolved in a mixture of chloroform and methanol (1:1). Lipid films of cationic and neutral lipid at a 1:1 molar ratio were formed with a rotary evaporator. The films were hydrated with either 5% dextrose in water (D5W) or 5 mM HEPES buffer (pH 7.4) at various temperatures. […] DMBG:DLPE was hydrated in D5W at 50° C. and extruded through a 0.05 μm membrane. […] DOBG:cholesterol and DOBG:DLPE were hydrated in D5W at room temperature and extruded through a 0.05 μm membrane.

in vivo transfection = test: Comparison of in vivo transfection activity of biguanide and guanidine derivatives with identical hydrophobic chains; conditions: data not shown
Description: The biguanide derivatives of the present invention differ from the guanidine derivatives described in WO 95/14381 in the positively charged headgroups. The positive charge of the biguanide derivatives is delocalized over five nitrogen atoms, whereas the positive charge of the guanidine derivatives is delocalized over three nitrogen atoms. Thus, compounds of the present invention have been compared to the guanidine derivatives having the identical hydrophobic chains (not shown).

[2] = Liposome hydration and extrusion; type: physicochemical; conditions: at 50° C.; with either DLPE or cholesterol
Protocol: as §1

[3] = strongly basic head group; cited from earlier work

SMILES: CCCCCCCC/C=C\CCCCCCCC(=O)OCCN(CCOC(=O)CCCCCCC/C=C\CCCCCCCC)C(=N)NC(=N)N [DOBG, N,N-di(2-(oleoyloxy)ethyl) biguanide]
- transfection activity in the lung compared with DOTIM:cholesterol [1]: comparable to or higher than DOTIM:cholesterol
- in vivo transfection activity, dioleoyl derivatives of biguanide versus guanidine (in vivo transfection): higher in vivo transfection activity than the dioleolyl derivatives of guanidine

SMILES: CCCCCCCCCCCCCCCC(=O)OCCN(CCOC(=O)CCCCCCCCCCCCCCC)C(=N)NC(=N)N [DPBG, N,N-di(2-(palmitoyloxy)ethyl)biguanide]
- Hydration of lipid film [2]: could not be completely hydrated

SMILES: N=C(N)NC(=N)N [biguanide]
- pKa [3]: 11.5
